According to ChEMBL document CHEMBL5360649, “Potential Broad-Spectrum Antimicrobial, Wound Healing, and Disinfectant Cationic Peptide Crafted from Snake Venom” (J Med Chem, 2023):
Activity calls are given as the source filed them. The rule behind the calls is not given here.

Legend:
Lipopolysaccharide (LPS) = experiment: Induction of Escherichia coli O111:B4 Lipopolysaccharide aggregate degradation at 40 uM incubated for 4 hrs by ESI-LC/MS analysis
[1] = Stability in human serum assessed as intact peptide remaining at 1 mM measured after 8 hrs by HPLC analysis; format: ADME, cell-free; conditions: read-out: Stability
Klebsiella pneumoniae [2] = experiment: Antibacterial activity against Klebsiella pneumoniae ATCC BAA-1705 assessed as inhibition of bacterial growth at 25 to 100 uM incubated overnight by spotting assay; format: functional, organism-based; conditions: dose 25-100 µM
Klebsiella pneumoniae [3] = experiment: Antibacterial activity against Klebsiella pneumoniae ATCC BAA-1705 assessed as inhibition of bacterial growth incubated for 24 hrs by CLSI protocol based microdilution method; format: functional
[4] = Hemolytic activity in human RBC assessed as hemolysis at 25 uM incubated for 30 mins under shaking condition by multiplate reader analysis relative to control; format: toxicity, cell-based, Erythrocyte; conditions: human red blood cells (RBC), read-out: Activity
[5] = Cytotoxicity against human WI-38 cells assessed as cell viability at 25 uM incubated for 24 hrs by MTT assay relative to control; format: toxicity, cell-based; conditions: read-out: Activity
[6] = Cytotoxicity against human WI-38 cells assessed as cell viability at 12.5 uM incubated for 24 hrs by MTT assay relative to control; format: toxicity, cell-based; conditions: read-out: Activity
Erythrocyte = experiment: Cytotoxicity against human RBC assessed as less damage to cells at 12.5 to 25 uM by SEM analysis; format: toxicity, cell-based; conditions: dose 12.5-25 µM
U-937 = experiment: Immunomodulatory activity in human U-937 cells assessed as reduction in LPS-induced IL-6 expression level incubated for 24 hrs by radioimmunoprecipitation based dot-plot analysis; format: functional, cell-based; conditions: dose 5-10 µM
RAW264.7 = experiment: Antiinflammatory activity in mouse RAW264.7 cells assessed as increase in TGF-beta1 expression at 10 uM incubated for 24 hrs by radioimmunoprecipitation based dot-plot analysis; format: functional, cell-based
Staphylococcus aureus [7] = experiment: Antibacterial activity against methicillin resistant Staphylococcus aureus assessed as inhibition of bacterial growth at 1.25 to 40 uM by microtiter plate reader analysis; format: functional, organism-based; conditions: dose 1.25-40 µM, time 0.5-8.5 hrs, TDE = time-dependent effect
Klebsiella pneumoniae [8] = experiment: Antibacterial activity against carbapenem resistance Klebsiella pneumoniae ATCC BAA-1705 assessed as inhibition of bacterial growth at 1.25 to 40 uM by microtiter plate reader analysis; format: functional, organism-based; conditions: dose 1.25-40 µM, time 0.5-8.5 hrs, TDE = time-dependent effect
Staphylococcus aureus [9] = experiment: Induction of morphological changes in methicillin-resistant Staphylococcus aureus at MIC concentration incubated for 6 hrs by AFM analysis; format: functional, organism-based
Staphylococcus aureus [10] = experiment: Induction of morphological changes in methicillin-resistant Staphylococcus aureus assessed as cellular destruction at MIC concentration incubated for 6 hrs by AFM analysis; format: functional, organism-based
Staphylococcus aureus [11] = experiment: Induction of morphological changes in methicillin-resistant Staphylococcus aureus at MIC concentration incubated for 6 hrs by SEM analysis; format: functional, organism-based
Pseudomonas aeruginosa [12] = experiment: Induction of morphological changes in Pseudomonas aeruginosa assessed as cellular destruction at MIC concentration incubated for 6 hrs by SEM analysis; format: functional, organism-based
Escherichia coli [13] = experiment: Induction of morphological changes in Escherichia coli assessed as decrease in legible cells at MIC concentration incubated for 6 hrs by AFM analysis; format: functional, organism-based
Escherichia coli [14] = experiment: Induction of morphological changes in Escherichia coli at MIC concentration incubated for 60 mins by SEM analysis; format: functional, organism-based
Staphylococcus aureus [15] = experiment: Induction of morphological changes in methicillin-resistant Staphylococcus aureus at MIC concentration incubated for 60 mins by SEM analysis; format: functional, organism-based
Escherichia coli [16] = experiment: Induction of morphological changes in Escherichia coli assessed as membrane perturbation at MIC concentration incubated for 60 mins by SEM analysis; format: functional, organism-based
Cell membrane [17] = experiment: Induction of outer membrane permeabilization in Escherichia coli at 0.5 to 1 times of MIC incubated for 5 to 20 mins by fluorescence based NPN uptake assay; format: subcellular; conditions: time 5-20 min
Cell membrane [18] = experiment: Induction of inner membrane permeabilization in Klebsiella pneumoniae assessed as increase in fluorescence at 0.5 to 1 times of MIC incubated for 60 mins by PI staining based fluorescence analysis; format: subcellular
Klebsiella pneumoniae [19] = experiment: Antibacterial activity against Klebsiella pneumoniae assessed as cell division block by measuring bacterial filamentation at 0.5 to 1 times of MIC incubated for 30 mins by SYTO9/PI staining based fluorescence microscopic analysis; format: functional, organism-based
Pseudomonas aeruginosa [20] = experiment: Antibacterial activity against Pseudomonas aeruginosa assessed as cell division block by measuring cellular elongation at 0.5 to 1 times of MIC incubated for 30 mins by SYTO9/PI staining based fluorescence microscopic analysis; format: functional, organism-based
Klebsiella pneumoniae [21] = experiment: Antibiofilm activity against Klebsiella pneumoniae assessed as biofilm eradication at 0.5 times of MIC incubated for 24 hrs by CV staining based analysis relative to control; format: functional
Klebsiella pneumoniae [22] = experiment: Antibiofilm activity against Klebsiella pneumoniae assessed as biofilm eradication at 1 times of MIC incubated for 24 hrs by CV staining based analysis relative to control; format: functional
Klebsiella pneumoniae [23] = experiment: Antibiofilm activity against Klebsiella pneumoniae assessed as eradication of preformed biofilm at 1 times of MIC incubated for 24 hrs by CV staining based analysis relative to control; format: functional
Klebsiella pneumoniae [24] = experiment: Antibiofilm activity against Klebsiella pneumoniae assessed as eradication of preformed biofilm at 0.5 times of MIC incubated for 24 hrs by CV staining based analysis relative to control; format: functional
Klebsiella pneumoniae [25] = experiment: Antibiofilm activity against Klebsiella pneumoniae assessed as clearance of preformed biofilm at 1 times of MIC incubated for 24 hrs by CV staining based analysis relative to control; format: functional
Pseudomonas aeruginosa [26] = experiment: Antibiofilm activity against Pseudomonas aeruginosa in the presence of Cl-; format: functional, organism-based
Klebsiella pneumoniae [27] = experiment: Antibiofilm activity against Klebsiella pneumoniae assessed as increase in dead cell proportion at 0.5 times of MIC incubated overnight by SYTO9/PI staining based fluorescence analysis; format: functional, organism-based
Staphylococcus aureus [28] = experiment: Antibiofilm activity against preformed biofilm in methicillin-resistant Staphylococcus aureus assessed as decrease in metabolic activity at MIC incubated overnight by MTT assay; format: functional, organism-based
[29] = Induction of wound healing in surgically-induced Albino Wistar rat wound model assessed as decrease in mean open wound percentage at 10 uM measured after 11 days by photographic analysis (reference value: 32.25%); format: functional; parameters: scale not given: the % may be the effect or the level left; conditions: time 11 day
[30] = Induction of wound healing in surgically-induced Albino Wistar rat wound model inoculated with methicillin-resistant Staphylococcus aureus assessed as decrease in mean open wound percentage at 10 uM measured after 11 days by photographic analysis (reference value: 32.25%); format: functional; parameters: scale not given: the % may be the effect or the level left; conditions: time 11 day
Rattus norvegicus [31] = organism: Rattus norvegicus; experiment: Induction of wound healing in surgically-induced Albino Wistar rat wound model assessed as reduction in inflammatory cell infiltration at 10 uM measured after 11 days by H&E staining based analysis; format: functional; conditions: time 11.0 day
Rattus norvegicus [32] = organism: Rattus norvegicus; experiment: Induction of wound healing in surgically-induced Albino Wistar rat wound model assessed as proper formation of blood vessels at 10 uM measured after 11 days by H&E staining based analysis; format: functional; conditions: time 11.0 day
Pseudomonas aeruginosa [33] = experiment: Induction of resistance development in Pseudomonas aeruginosa assessed as change in MIC at 0.5 times of MIC incubated with compound for 12 hrs followed by replacement with fresh medium for 12 hrs and measured after 20 repeated cycles; format: functional, organism-based; conditions: time 240.0 hrs
Klebsiella pneumoniae [34] = experiment: Induction of resistance development in Klebsiella pneumoniae assessed as fold increase in MIC at 0.5 times of MIC incubated with compound for 12 hrs followed by replacement with fresh medium for 12 hrs and measured after 20 repeated cycles; format: functional; conditions: time 240 hrs

H-FLPIIKWVKKFFWRWR-OH
Activity (Lipopolysaccharide (LPS)): Active
remaining at 8 h, 1000 µM [1]: 61%
Activity (Klebsiella pneumoniae [2]): Active
MIC (Klebsiella pneumoniae [3]): 8 µM
hemolysis at 0.5 h, 25 µM [4]: 20.4%
viability at 24 h, 25 µM [5]: 88.3%
viability at 24 h, 12.5 µM [6]: 91.5%
Activity (Erythrocyte): Non-Toxic
Activity (U-937): Dose-Dependent Effect
Activity (RAW264.7): Active
Activity (Staphylococcus aureus [7]): Tde
Activity (Klebsiella pneumoniae [8]): Tde
Activity (Staphylococcus aureus [9]): Active
Activity (Staphylococcus aureus [10]): Active
Activity (Staphylococcus aureus [11]): Active
Activity (Pseudomonas aeruginosa [12]): Active
Activity (Escherichia coli [13]): Active
Activity (Escherichia coli [14]): Active
Activity (Staphylococcus aureus [15]): Active
Activity (Escherichia coli [16]): Active
Activity (Cell membrane [17]): Active
Activity (Cell membrane [18]): Active
Activity (Klebsiella pneumoniae [19]): Active
Activity (Pseudomonas aeruginosa [20]): Active
Activity (Klebsiella pneumoniae [21]): ~62%
Activity (Klebsiella pneumoniae [22]): <=78.28%
Activity (Klebsiella pneumoniae [23]): ~88%
Activity (Klebsiella pneumoniae [24]): ~56%
Activity (Klebsiella pneumoniae [25]): ~70%
Activity (Pseudomonas aeruginosa [26]): Active
Activity (Klebsiella pneumoniae [27]): inactive
Activity (Staphylococcus aureus [28]): Active
Activity [29]: 5.6%
Activity [30]: 17.22%
Activity (Rattus norvegicus [31]): Active
Activity (Rattus norvegicus [32]): Active
Activity (Pseudomonas aeruginosa [33]): inactive
fold change (FC) (Klebsiella pneumoniae [34]): 2
